Assay [1] can be described thus: Rate of disintegration of animal waste: time to a uniformly distributed suspension under magnetic stirring. On the set-up: species or system dog. Conditions: about 5 g waste, 90.0 g water, stirring about 90 rpm; water alone 16 minutes. Here is the method:
1. The selected amount of feces was weighed out with the accuracy of 10 mg. All the samples had the same mass within 200 milligrams.
2. […]
3. The mixture was mixed at specific rate (about 90 rpm) using a magnetic bar inside the solution and a magnetic stirrer. The amount of time necessary to produce a uniformly distributed suspension was measured.

Assay [2] is described as follows: Rate of malodor disappearance from dog waste stirred at 40° C. Conditions: oxidizing agent added to the formulation or as aqueous solution. Here is the method: 1. The specific amount of feces was weighed (about 4.0 g; accuracy of 1 mg) out and transferred to the 200 mL beaker.
2. 100.0 g of aqueous solution containing either no additives or the selected ones weighed at the same balance (accuracy of 1 mg) was added to the beaker.
3. The sample was located on a hot plate and stirred magnetically at 40° C. in the fume hood.
4. The samples were checked for the released smell every few minutes.
50.0 mL of deionized water containing selected quantities of detergent, pH affecting agent and protease (same concentration as in the formulation divided by 50 since this is the planned dilution with water), pH affecting agent and protease • a. no additives • b. Cola Lipid (0.20 g); protease (Alcalase 3.0T, 0.008 g), sodium perborate tetrahydrate (0.012 g), citric acid (to adjust pH to about 3.0), • c. Cola Lipid (0.20 g); protease (Alcalase 3.0T, 0.008 g), sodium perborate tetrahydrate (0.012 g), sodium hydrogen carbonate (to adjust pH to about 10.0), • d. Cola Lipid (0.20 g); protease (Alcalase 3.0T, 0.008 g), 5% hydrogen peroxide (0.100 g), citric acid (to adjust pH to about 3.0) was added to 3.00 g of the dog waste. The mixtures were located in the fume hood, heated on the hot plate to 40° C. and stirred magnetically. […] The malodor of the sample “a” disappeared after about 30 minutes.

Another assay has as its system animal waste bio-burden. Kind of assay: Lowering of animal waste bio-burden: dog waste homogenised with additives, serially diluted, plated on agar, CFUs counted. Type of assay: cell-based. Here is the method:
1. A specific amount of a dog waste weighed with the accuracy of 1 mg (usually between 3 and 7 g) was transferred into the sterilized homogenizer. In a set of experiments performed on a given day the mass of all the samples were the same within 20.0 mg.
2. All the required additives were weighed out using the same balance and introduced into a specific amount of deionized, freshly boiled (but cooled to room temperature) water (usually between 50.0 g and 100.0 g) in the sterilized Erlenmeyer flask.
3. Next, the aqueous solution of additives was transformed into the homogenizer.
4. The mixture was mixed at low (18,000 RPM) for a specific amount of time (usually 30 seconds).
5. The resulting suspension was transferred to the sterilized Erlenmeyer flask and gradually diluted 10 times in several subsequent dilution steps. Initially, 5.0 mL of the non-diluted solution was added to 45.0 mL of deionized, freshly boiled water. The Eppendorf pipettes were used for further dilutions and in each case […] of the previous sample after vortex was added to 0.900 mL of deionized, freshly boiled water in a sterile vial. Usually, 6 or 7 dilutions were performed. In every set of experiments one sample consisted of the feces and water only. All the results were measured against this sample.
6. […]
8. Next, each sample was counted to determine the number of CFUs (colony forming units).

Consider `CCCCCCCCCCCCOS(=O)(=O)[O-].[Na+]` [Sodium dodecyl sulfate, sodium dodecyl sulfate], for which, in assay [1], the “Time until feces disintegration” value turned out to be 1 min.

Regarding `CCCCCCCC/C=C\CCCCCCCC(=O)OCCOCC(OCCO)C1OCC(OCCO)C1OCCO` (stereo not shown) [Tween 80, polysorbate 80], in assay [1], the “Time until feces disintegration” value was 2 min. On to `O=C(OO)c1cccc(Cl)c1` [metachloroperbenzoic acid (MCPBA), metachloroperbenzoic acid], for which, in assay [2], the “reduction of malodor of feces, in words” value is “destroy the malodor very effectively”. Still for that read-out and setting: with `O.O.O.O=BO[O-].[Na+]` [sodium perborate trihydrate] the entry was “significantly reduced malodours”.

For the compound “cocamidopropyl PG-dimonium chloride phosphate [Cola lipid]”, in the assay on animal waste bio-burden (formulation of Table 3 against the same formulation without citric acid), the “effect of added citric acid on antimicrobial activity” value is given as “significantly enhanced the antimicrobial activity”. Further, in the assay on animal waste bio-burden (treating animal waste), the “antimicrobial activity, comparison in words” value is “significantly better antimicrobial activity”. Further, the “Time until feces disintegration” value in assay [1] was determined as 1 min. For the compound octoxynol [Triton X100], the “Time until feces disintegration” value in assay [1] stood at 4 min. For sodium perborate, the figures for the “reduction of malodor of feces, in words” value in assay [2] and in assay [2] (listed as Sodium perborate) were “destroy the malodor very effectively” and “effectively minimizes the malodor of feces”, respectively.

The values are drawn from patent US8097241B2, “Formulation and method for treating animal waste” (priority 2007, dated 2012).
